{"source": "patent US9943558B2", "about": "“Compositions and methods for treating multi-drug resistant malaria” (Febris Bio-Tech Limited, priority 2011, dated 2018)", "key": {"[1]": {"conditions": "in vivo; cited from earlier work"}, "[2]": {"system": "P. falciparum multi-drug resistant (MDR) clone Dd2", "test": "In vitro growth inhibition IC50, Giemsa-stained smears (Example 1D), clone Dd2", "assay_type": "cell-based", "conditions": "Plasmodium falciparum", "protocol": "(§1) The Luo Han Guo general extract (Sample 8) was prepared by extraction of dried Luo Han fruit with hot water as in Example 1A, and then fractionated with EtOAc and n-butanol respectively as in Example 1A to yield 3 fractions corresponding to Samples 5a-7a. Samples 6a-7a also correspond to “compound B” and “compound A” respectively.\n(§2) The P. falciparum was cell synchronized by adding 5% of D-sorbitol, and synchronized cells were then spread on culture plates after achieving ring form phase, with an initial infection rate of 1% and PCV at 5%.\n(§3) 10 μl active ingredient solution plus 90 μl P. falciparum culture medium were spread on each well.\n(§4) Drug-sensitive (DS) clone 3D7 and multi-drug resistant (MDR) clone Dd2 of Plasmodium falciparum, obtained from the Malaria Research and Reference Reagent Resource Centre (MR4), Manassas, Va., USA, were maintained continuously in blood group O+ human erythrocytes and 10% human serum in a gas mixture consisting of 7% CO2, 5% O2 and 88% N2.\n(§5) In vitro inhibitory concentration assays. P. falciparum clones 3D7 and Dd2 were maintained continuously in blood group O+ human erythrocytes and 10% human serum in a gas mixture consisting of 7% CO2, 5% O2, and 88% N2, synchronized by serial treatments with 5% D-sorbitol. […]"}, "[3]": {"conditions": "cited from earlier work"}, "P. falciparum DD2": {"system": "P. falciparum DD2", "test": "Checkerboard assay (FIC index)", "assay_type": "cell-based, Plasmodium falciparum", "conditions": "for MIC: Plasmodium falciparum, DD2, each component used alone", "protocol": "Checkerboard assay. The anti-malaria activity of Luohan fruit extracts and Stevia leaf extracts in vitro were determined and predicted using the malarial strain P. falciparum DD2. Samples are mixed into 1:2 series dilutions and the FIC index (FICI) is calculated. (Rand, K. H., Houck, H. J., Brown, P. et al. “Reproducibility of the microdilution checkerboard method for antibiotic synergy,” Antimicrobial Agents & Chemotherapy (1993) 37:613-5; Eliopoulos, G. M., Moellering R. C. in Antibiotics in Laboratory Medicine, ed. Lorian V (Williams & Wilkins, Baltimore, Md., 1991), pp 432-492; Ghannoum, M. A., Fu, Y., Ibrahim, A. S., Mortara, L. A., Shafiq, M. C., Edwards, J. E., Jr., Criddle, R. S. Antimicrob. Agents Chemother. (1995) 39:2459-2465; Barchiesi, F., DiFrancesco, L. F., Scalise, G. “In Vitro Activities of Terbinafine in Combination With Fluconazole and Itraconazole Against Isolates of Candida albicans With Reduced Susceptibility to Azoles,” Antimicrob. Agents Chemother. (1997) 41:1812-1814. Each of the foregoing references are incorporated herein by reference in their entirety.)\nTo determine whether the readout of the combination therapy is additive, synergistic, or indifferent, the FIC index (FICI) was calculated by the use of the checkerboard assay. The FICI represents the sum of the FICs of each drug tested, where the FIC (fractional inhibitory concentration) is determined for each drug by dividing the MIC of each drug when used in combination by the MIC of each drug when used alone. FICI=(MICdrug A in combination/MICdrug A alone)+(MICdrug B in combination/MICdrug B alone). The preassumptions are that (i) testing uses concentrations separated by a factor of 2, and (ii) one-dilution-step MIC changes are within the range of experimental error. Other sophisticated methods have also been used; for example, a contour surface-plot methodology was used in characterizing the nature of three antifungal agents in combinations using various concentrations of each agent."}, "[4]": {"system": "P. falciparum drug-sensitive clone 3D7", "test": "In vitro inhibitory concentration assay, light microscopy of Giemsa-stained smears (Example 1C), clone 3D7", "assay_type": "cell-based", "conditions": "Plasmodium falciparum, 10^−4 g/L, read-out: Percent of Inhibition (%, Mean ± SD) 3D7", "protocol": "(§6) Parasite cultivation. Drug-sensitive clone 3D7 and multi-drug resistant (MDR) clone Dd2 of Plasmodium falciparum, obtained from the Malaria Research and Reference Reagent Resource Centre (MR4), Manassas, Va., USA, were maintained continuously in blood group O+ human erythrocytes and 10% human serum in a gas mixture consisting of 7% CO2, 5% O2 and 88% N2.\n(§7) The stock solutions of Example 1A, and CQ employed as the positive control (prepared as a 10 mM stock solution in PBS), were stored at −20° C. Each working solution was freshly prepared in cell culture medium.\n(§8) In vitro inhibitory concentration assays. P. falciparum clones 3D7 and Dd2 were maintained continuously in blood group O+ human erythrocytes and 10% human serum in a gas mixture consisting of 7% CO2, 5% O2, and 88% N2, synchronized by serial treatments with 5% D-sorbitol. In vitro growth inhibition of ring-stage-parasitized erythrocytes starting at 1% parasitemia and 2.5% hematocrit was determined by light microscopy of Giemsa-stained smears."}, "[5]": {"system": "P. falciparum multi-drug resistant (MDR) clone Dd2", "test": "In vitro inhibitory concentration assay, light microscopy of Giemsa-stained smears (Example 1C), clone Dd2", "assay_type": "cell-based", "conditions": "Plasmodium falciparum, 10^−4 g/L, read-out: Percent of Inhibition (%, Mean ± SD) Dd2", "protocol": "as §6, §7, §8"}, "P. falciparum infection": {"system": "P. falciparum infection", "test": "Expected oral treatment of patients, standard blood film monitoring", "assay_type": "in vivo, Plasmodium falciparum", "conditions": "patient, aqueous composition, total daily dosage up to about 500 mg of each active"}, "[6]": {"conditions": "cited from earlier work; for half-life (t1/2): in humans"}, "[7]": {"system": "P. falciparum drug-sensitive (DS) clone 3D7", "test": "In vitro growth inhibition IC50, Giemsa-stained smears (Example 1D), clone 3D7", "assay_type": "cell-based", "conditions": "Plasmodium falciparum", "protocol": "as §1, §2, §3, §4, §5"}, "[8]": {"system": "Plasmodium falciparum multidrug resistant strain (MDR) 7G8", "test": "In vitro growth inhibition of P. falciparum 7G8, infection rate by Giemsa-stained smear (Example 1B)", "assay_type": "cell-based", "conditions": "7G8, read-out: Antimalarial activity, IC50", "from_the_text": "The Plasmodium falciparum multidrug resistant strain (MDR) 7G8, (obtained from the Malaria Research and Reference Reagent Resource Centre (MR4), Manassas, Va., USA), was in vitro cultured in RMPI 1640 cell culture medium (supplemented with 10% Human Serum) with PCV (packed cell volume) at 5%. The P. falciparum was cell synchronized by adding 5% of D-sorbitol, and synchronized cells were then spread on culture plates after achieving ring form phase, with an initial infection rate of 1% and PCV at 5%.\nas §3"}, "P. falciparum clone Dd2": {"system": "P. falciparum clone Dd2", "test": "Malaria SYBR Green I-based fluorescence method, clone Dd2", "assay_type": "cell-based", "conditions": "Plasmodium falciparum, DD2, 72 h, read-out: In vitro susceptibility (IC50) Dd2", "protocol": "(§9) 1803-1806, Vol. 48, No. 5, with slight modifications. Drug solutions were serially diluted with culture medium and distributed to asynchronous parasite cultures in 96-well plates in quadruplicate to achieve 0.2% parasitaemia with a 2% haematocrit in a total volume of 100 μL. The plates were then incubated for 72 h at 37° C. Following incubation, 100 μL of lysis buffer with 0.2 μL/mL SYBR Green 1 was added to each well. The plates were incubated at 37° C. for 1 h in the dark and then placed in a 96-well fluorescence plate reader (Multilabel HTS Counter; PerkinElmer, Waltham, Mass., USA) with excitation and emission wavelengths at 497 nm and 520 nm, respectively, for measurement of fluorescence. The 50% inhibitory concentration (IC50) was determined by non-linear regression analysis of logistic dose—response curves using GraphPad Prism software (GraphPad Software Inc., La Jolla, Calif.). This example serves as a comparative method.\n(§10) Next, the assay portion of procedure of Example 1C was performed using Coartem as a positive control."}, "P. falciparum clone 3D7": {"system": "P. falciparum clone 3D7", "test": "Malaria SYBR Green I-based fluorescence method, clone 3D7", "assay_type": "cell-based", "conditions": "Plasmodium falciparum, 3D7, 72 h, read-out: In vitro susceptibility (IC50) 3D7", "protocol": "as §9, §10"}, "[9]": {"conditions": "Example 2E (control): artemesinin with Reb A"}}, "note": "Like-named read-outs stand apart in the source and are kept apart here."}
{"compound": "CO[C@H]1O[C@@H]2O[C@@]3(C)CC[C@H]4[C@H](C)CC[C@@H]([C@H]1C)[C@@]24OO3", "note": "[Artemether, artemether]", "values": [{"measurement": "elimination", "setting": "[1]", "value": "rapidly eliminated"}]}
{"compound": "CCCCN(CCCC)CC(O)c1cc(Cl)cc2c1-c1ccc(Cl)cc1/C2=C/c1ccc(Cl)cc1", "note": "(racemic) [lumefantrine, (+/−)-2-dibutylamino-1-[2,7-dichloro-9-(4-chlorobenzylidene)-9,11-fluoren-4-yl]ethanol]", "values": [{"measurement": "elimination", "setting": "[1]", "value": "eliminated more slowly"}]}
{"compound": "C=C1C[C@@]23CC[C@H]4[C@@](C)(CCC[C@@]4(C)C(=O)OC4OC(CO)C(O)C(O)C4O)[C@@H]2CC[C@]1(OC1OC(CO)C(O)C(OC2OC(CO)C(O)C(O)C2O)C1OC1OC(CO)C(O)C(O)C1O)C3", "note": "(stereo partly drawn) [Sample No. 1, (14α)-13-[(2-O-β-D-glucopyranosyl-3-O-β-D-glucopyranosyl-β-D-glucopyranosyl)oxy]kaur-16-en-19-oic acid β-D-glucopyranosyl ester]", "values": [{"measurement": "IC50", "setting": "[2]; clone Dd2 (MDR), Giemsa smear, read-out: IC50, av. Dd2 (MDR)", "value": "376 ± 12.4", "unit": "nM"}, {"measurement": "solubility in water", "setting": "[3]", "value": "fully water soluble"}, {"measurement": "MIC in combination", "setting": "P. falciparum DD2; Example 2D: compound A with Reb A", "value": 94, "unit": "nM"}, {"measurement": "MIC in combination", "setting": "P. falciparum DD2; [9]", "value": 376, "unit": "nM"}, {"measurement": "MIC", "setting": "P. falciparum DD2", "value": 376, "unit": "nM"}, {"measurement": "inhibition at 0.1 µg/mL", "setting": "[4]", "value": 41.3, "unit": "%"}, {"measurement": "inhibition at 0.1 µg/mL", "setting": "[5]", "value": "56.1 ± 1.36", "unit": "%"}, {"measurement": "expected time until P. falciparum infection is suppressed or inhibited", "setting": "P. falciparum infection", "value": "3 to 7", "unit": "days"}, {"measurement": "adverse hemodynamic effects or blood glucose lowering effects", "setting": "[6]; at the dosages used herein", "value": "does not exhibit adverse hemodynamic effects or blood glucose lowering effects"}, {"measurement": "half-life (t1/2)", "setting": "[6]", "value": "approximately 14 hours"}, {"measurement": "IC50", "setting": "[7]; clone 3D7 (DS), Giemsa smear, read-out: IC50, av. 3D7 (DS)", "value": "220 ± 10.2", "unit": "nM"}]}
{"compound": "C[C@H](CC[C@@H](OC1OC(COC2OC(CO)C(O)C(O)C2O)C(O)C(O)C1OC1OC(CO)C(O)C(O)C1O)C(C)(C)O)[C@H]1CC[C@@]2(C)[C@@H]3CC=C4[C@@H](CC[C@H](OC5OC(COC6OC(CO)C(O)C(O)C6O)C(O)C(O)C5O)C4(C)C)[C@]3(C)[C@H](O)C[C@]12C", "note": "(stereo partly drawn) [mogroside V, (3β,9β,10α,11α,24R)-3-[(6-O-β-D-glucopyranosyl-β-D-glucopyranosyl)oxy]-11,25-dihydroxy-9-methyl-19-norlanost-5-en-24-yl-O-β-D-glucopyranosyl-(1-2)-O-[β-D-glucopyranosyl-(1-6)]-β-D-glucopyranoside]", "values": [{"measurement": "solubility in water", "setting": "[3]", "value": "fully water soluble"}]}
{"compound": "CCN(CC)CCCC(C)Nc1ccnc2cc(Cl)ccc12", "note": "(centres unmarked) [CQ, chloroquine]", "values": [{"measurement": "IC50", "setting": "[2]; DD2, read-out: IC50, av. Dd2 (MDR)", "value": "22.6 ± 0.82", "unit": "nM"}, {"measurement": "IC50", "setting": "[8]", "value": "0.264 ± 0.012", "unit": "µg/mL"}, {"measurement": "IC50", "setting": "P. falciparum clone Dd2", "value": "22.1 ± 1.96", "unit": "nM"}, {"measurement": "IC50", "setting": "P. falciparum clone 3D7", "value": "1.63 ± 0.1", "unit": "nM"}, {"measurement": "IC50", "setting": "[7]; 3D7, read-out: IC50, av. 3D7 (DS)", "value": "1.37 ± 0.12", "unit": "nM"}]}
{"compound": "C[C@@H]1CC[C@H]2[C@@H](C)C(=O)O[C@@H]3O[C@@]4(C)CC[C@@H]1[C@]32OO4", "note": "[Artemisinin, reference compound]", "values": [{"measurement": "solubility in water", "setting": "[3]", "value": "poorly soluble in water"}, {"measurement": "MIC in combination", "setting": "P. falciparum DD2; [9]", "value": 0.0081, "unit": "nM"}, {"measurement": "MIC", "setting": "P. falciparum DD2", "value": 0.13, "unit": "nM"}]}
{"compound": "C=C1C[C@@]23CC[C@H]4[C@@](C)(CCC[C@@]4(C)C(=O)O[C@@H]4O[C@H](CO)[C@@H](O)[C@H](O)[C@H]4O)[C@@H]2CC[C@]1(O[C@@H]1O[C@H](CO)[C@@H](O)[C@H](O)[C@H]1O[C@@H]1O[C@H](CO)[C@@H](O)[C@H](O)[C@H]1O)C3", "note": "[stevioside]", "values": [{"measurement": "half-life (t1/2)", "setting": "[6]", "value": "approximately 14 hours"}]}
